Species: Rattus norvegicus
Experiment: Open TG-GATES - Regimen: Single
Format: toxicity, organism-based, Sprague-Dawley
Parameters: regimen Single, gender Male, age 6 weeks
Settings: in vivo, po, route gavage; for KIDNEY_L / KIDNEY_R / KIDNEY_TOTAL: tissue Kidney; for LIVER: tissue Liver
[1] = 0 mg/kg, 24 h, tissue Plasma, dose level Control
[2] = 40 mg/kg, 3 h, tissue Blood, dose level Low
[3] = 40 mg/kg, 3 h, tissue Plasma, dose level Low
[4] = 40 mg/kg, 6 h, tissue Blood, dose level Low
[5] = 40 mg/kg, 6 h, tissue Plasma, dose level Low

CCC(C)(C)C(=O)O[C@H]1C[C@@H](C)C=C2C=C[C@H](C)[C@H](CC[C@@H]3C[C@@H](O)CC(=O)O3)[C@H]21 [SIMVASTATIN]
TG [1]: 76.6 mg/dL
TP [1]: 5.5 g/dL
gamma-GTP [1]: 1.6 IU/L
TERMINAL_BW (40 mg/kg, 3 h, dose level Low): 203.4 g
Bas [2]: 0%
Eos [2]: 0.6%
Fbg [2]: 213.2 mg/dL
Hb [2]: 12.4 g/dL
Ht [2]: 37.8%
Lym [2]: 81.6%
MCHC [2]: 32.8%
Mono [2]: 6%
Neu [2]: 12%
PT [2]: 11 s
Plat [2]: 112.7 x10_4/uL
RBC [2]: 568 x10_4/ul
Ret [2]: 10%
WBC [2]: 120.8 x10_2/uL
KIDNEY_L (40 mg/kg, 3 h, dose level Low): 0.9 g
KIDNEY_R (40 mg/kg, 3 h, dose level Low): 0.9 g
KIDNEY_TOTAL (40 mg/kg, 3 h, dose level Low): 1.9 g
LIVER (40 mg/kg, 3 h, dose level Low): 9.7 g
ALP [3]: 793.6 IU/L
ALT [3]: 31.4 IU/L
AST [3]: 61.6 IU/L
BUN [3]: 13.6 mg/dL
CRE [3]: 0.6 mg/dL
Ca [3]: 10.8 mg/dL
DBIL [3]: 0.04 mg/dL
IP [3]: 8.9 mg/dL
K [3]: 4.4 meq/L
LDH [3]: 91.8 IU/L
Na [3]: 137.8 meq/L
PL [3]: 144.6 mg/dL
RALB [3]: 3.8 g/dL
TBIL [3]: 0.3 mg/dL
TC [3]: 77.4 mg/dL
TG [3]: 71.2 mg/dL
TP [3]: 5.6 g/dL
gamma-GTP [3]: 1.4 IU/L
TERMINAL_BW (40 mg/kg, 6 h, dose level Low): 196.1 g
Bas [4]: 0%
Eos [4]: 1%
Fbg [4]: 216.2 mg/dL
Hb [4]: 13.4 g/dL
Ht [4]: 41.2%
Lym [4]: 81.6%
MCH [4]: 21.8 pg
MCHC [4]: 32.6%
Mono [4]: 7.4%
Neu [4]: 10.2%
Plat [4]: 112.9 x10_4/uL
RBC [4]: 615.8 x10_4/ul
Ret [4]: 9.1%
WBC [4]: 93.2 x10_2/uL
KIDNEY_L (40 mg/kg, 6 h, dose level Low): 0.9 g
KIDNEY_R (40 mg/kg, 6 h, dose level Low): 0.9 g
KIDNEY_TOTAL (40 mg/kg, 6 h, dose level Low): 1.8 g
LIVER (40 mg/kg, 6 h, dose level Low): 8.7 g
ALP [5]: 826.8 IU/L
ALT [5]: 32.8 IU/L
AST [5]: 58.6 IU/L
CRE [5]: 0.5 mg/dL
Ca [5]: 10.2 mg/dL
DBIL [5]: 0.08 mg/dL
IP [5]: 9.6 mg/dL
K [5]: 4.4 meq/L
LDH [5]: 98.4 IU/L
Na [5]: 137.6 meq/L
PL [5]: 132.4 mg/dL
RALB [5]: 3.6 g/dL

From ChEMBL document CHEMBL3885861, “Open TG-GATES”
